In US9062043B2, “Fused tricyclic compounds as serine-threonine protein kinase and PARP modulators” (SENHWA BIOSCIENCES, INC., priority 2006, dated 2015):
pIC50: −log10 of the molar value. Where two headings read alike, the source gives them in different places. Blank lines part the entries; values can stand above or below the compound they belong to.

What was measured:
Assay type in all cases: cell-based
[1] = system: BxPC3; test: Cell proliferation assay, Alamar Blue, BxPC3; details: Homo sapiens, BXPC-3; Table 19b
Protocol: (§1) c. Plate 4,000-5,000 cells per well in 100 μl of medium and seed into a 96-well plate according to the following plate layout. Add cell culture medium only to wells B10 to B12. Wells B1 to B9 have cells but no compound added.
(§2) d. Add 100 μl of 2× drug dilution to each well in a concentration shown in the plate layout above. At the same time, add 100 μl of media into the control wells (wells B10 to B12). Total volume is 200 μl/well.
(§3) e. Incubate four (4) days at 37° C., 5% CO2 in a humidified incubator.
(§4) f. Add 20 μl Alamar Blue reagent to each well.
(§5) g. Incubate for four (4) hours at 37° C., 5% CO2 in a humidified incubator.
(§6) h. Record fluorescence at an excitation wavelength of 544 nm and emission wavelength of 590 nm using a microplate reader.
(§7) In the assays, cells are cultured with a test compound for approximately four days, the dye then is added to the cells and fluorescence of […] dye is detected after approximately four hours. Different types of cells can be utilized in the assays (e.g., HCT-116 human colorectal carcinoma cells, PC-3 human prostatic cancer cells and MiaPaca human pancreatic carcinoma cells). Anti-proliferative effects of representative compounds are provided hereafter.

[2] = system: PanC1; test: Cell proliferation assay, Alamar Blue, PanC1; details: Homo sapiens, PANC-1; Table 19b; read-out: IC50 PanC1
Protocol: (§8) A representative cell-proliferation assay protocol using Alamar Blue dye (stored at 4° C., use 20 ul per well) is described hereafter.
as §1, §2, §3, §4, §5, §6, §7

[3] = system: Jurkat; test: Cell proliferation assay, Alamar Blue, Jurkat; details: Homo sapiens;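 note: cells exposed to compound for about 4 days at 37 °C, then Alamar Blue added and fluorescence read after about 4 h, controls given medium without drug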
[4] = system: HCT-116 human colorectal carcinoma cells; test: Cell proliferation assay, Alamar Blue, HCT-116;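 note: cells exposed to compound for about 4 days, then Alamar Blue added and fluorescence read after about 4 h, medium-only wells as control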
[5] = system: H1299; test: Cell proliferation assay, Alamar Blue, H1299; details: Homo sapiens, NCI-H1299; Table 16
Protocol: as §1, §2, §3, §4, §5, §6, §7

[6] = system: Hs578T; test: Cell proliferation assay, Alamar Blue, Hs578T; details: Homo sapiens, Hs-578T
[7] = system: MiaPaca human pancreatic carcinoma cells; test: Cell proliferation assay, Alamar Blue, MiaPaca
Protocol: as §8, §1, §2, §3, §4, §5, §6, §7

[8] = system: PC-3 human prostatic cancer cells; test: Cell proliferation assay, Alamar Blue, PC-3
Protocol: as §8, §1, §2, §3, §4, §5, §6, §7

[9] = system: HT29; test: Cell proliferation assay, Alamar Blue, HT29; details: Homo sapiens, HT-29; Table 19b
Protocol: as §1, §2, §3, §4, §5, §6, §7

pIC50 [1]: 4.34
pIC50 [2]: < 4.30
Structure (SMILES): O=C(O)c1ccc2c(c1)nc(NC1CC1)c1nc(SCc3ccccc3Cl)ncc12 [drawing 1265]

pIC50 [1]: < 4.30
pIC50 [2]: < 4.30
Structure (SMILES): O=C(O)c1ccc2c(c1)nc(NCc1cccnc1)c1nc(NC3CC3)ncc12 [drawing 1276]

pIC50 ([3]; Table 18): < 4.30
pIC50 ([4]; HCT-116, Table 18): < 5.00
Structure (SMILES): O=C(O)c1ccc2c(c1)nc(Nc1cncc(C3CC3)c1)c1ncncc12

pIC50 [5]: 5.52
pIC50 ([7]; MIA PaCa-2, Table 16): 5.02
pIC50 ([8]; Table 16, read-out: IC50 PC3): 5.54
Structure (SMILES): Fc1cccc(Nc2nc3cc(-c4nnn[nH]4)ccc3c3sccc23)c1
pIC50 ([6]; Table 16): 5.47

pIC50 ([8]; Table 18, read-out: IC50 PC3): < 4.30
Structure (SMILES): Fc1cccc(Nc2nc3cc(-c4nnn[nH]4)ccc3c3cnccc23)c1

pIC50 [1]: 4.31
pIC50 [2]: < 4.30
Structure (SMILES): CCOc1ncc2c(n1)c(NC1CC1)nc1cc(C(=O)O)ccc12 [drawing 1266]

pIC50 [1]: 5.48
pIC50 [2]: 4.98
Structure (SMILES): CC1CCCCN1CCCNc1ncc2c(n1)c(Nc1ccc(F)c(Cl)c1)nc1cc(C(=O)O)ccc12 (stereo not drawn) [drawing 1280]

pIC50 ([3]; Table 18): 5.33
pIC50 ([7]; MIA PaCa-2, Table 18): 4.49
Structure (SMILES): COC(=O)c1ccc2c(c1)nc(NC1CC1)c1nc(SCc3ccccc3Cl)ncc12 [drawing 1069]

pIC50 ([3]; Table 18): 6.38
pIC50 ([7]; MIA PaCa-2, Table 18): 6.32
pIC50 ([4]; HCT-116, Table 18): < 5.00
Structure (SMILES): C#Cc1cccc(Nc2nc3cc(C(=O)O)ccc3c3cnc(NCC4CC4)nc23)c1 [drawing 1064]

pIC50 ([7]; MIA PaCa-2, Table 18): < 5.00
pIC50 ([4]; HCT-116, Table 18): < 5.00
pIC50 ([8]; Table 18, read-out: IC50 PC3): 4.57
Structure (SMILES): O=C(O)c1ccc2c(c1)nc(NCCc1cccc(F)c1)c1ccncc12 [drawing 1022]
pIC50 ([6]; Table 18): 4.61

pIC50 ([3]; Table 18): 5.46
pIC50 ([7]; MIA PaCa-2, Table 18): 5.55
pIC50 ([4]; HCT-116, Table 18): < 5.00
Structure (SMILES): O=C(O)c1ccc2c(c1)nc(NC1CC1)c1nc(NC3CC3)ncc12 [drawing 1074]

pIC50 [1]: 5.13
pIC50 [2]: < 4.30
Structure (SMILES): COC(=O)c1ccc2c(c1)nc(NC1CC1)c1nc(SC)ncc12 [drawing 1292]

pIC50 ([8]; Table 18, read-out: IC50 PC3): < 4.30
Structure (SMILES): Fc1cc(Nc2nc3cc(-c4nnn[nH]4)ccc3c3cnccc23)ccc1Cl

pIC50 ([7]; MIA PaCa-2, Table 18): < 5.00
pIC50 ([4]; HCT-116, Table 18): < 5.00
pIC50 ([8]; Table 18, read-out: IC50 PC3): 4.33
Structure (SMILES): O=C(O)c1ccc2c(c1)nc(NCCc1cccc(Cl)c1)c1ccncc12 [drawing 1021]
pIC50 ([6]; Table 18): 4.60

pIC50 ([3]; Table 18): 5.46
pIC50 ([7]; MIA PaCa-2, Table 18): 5.08
pIC50 ([4]; HCT-116, Table 18): < 5.00
Structure (SMILES): Cc1cccc(Nc2nc3cc(C(=O)O)ccc3c3cncnc23)c1

pIC50 ([3]; Table 18): 5.34
pIC50 ([7]; MIA PaCa-2, Table 18): 5.61
pIC50 ([4]; HCT-116, Table 18): < 5.00
Structure (SMILES): O=C(O)c1ccc2c(c1)nc(NC1CC1)c1nc(Nc3ccccc3)ncc12 [drawing 1076]

pIC50 [1]: 5.25
pIC50 [2]: 5.88
Structure (SMILES): CCCNc1ncc2c(n1)c(NC1CC1)nc1cc(C(=O)O)ccc12 [drawing 1296]

pIC50 [9]: 4.33
Structure (SMILES): O=C(O)c1ccc2c(c1)nc(NCCc1ccccc1)c1ccncc12 [drawing 1206]

pIC50 ([3]; Table 18): 4.53
pIC50 ([7]; MIA PaCa-2, Table 18): < 4.30
Structure (SMILES): O=C(O)c1ccc2c(c1)nc(NC1CC1)c1nc(SCc3ccccc3Cl)ncc12 [drawing 1072]

pIC50 [5]: 5.05
pIC50 ([4]; HCT-116, Table 16, first HCT-116 column): < 5.00
pIC50 ([8]; Table 16, read-out: IC50 PC3): < 4.30
Structure (SMILES): CN(C)CCNc1nc2cc(C(=O)O)ccc2c2sccc12
pIC50 ([6]; Table 16): < 4.30

pIC50 [1]: 4.31
pIC50 [2]: < 4.30
Structure (SMILES): O=C(O)c1ccc2c(c1)nc(NC1CC1)c1ccncc12 [drawing 1290]

pIC50 [5]: 5.40
pIC50 ([3]; Table 16): 5.37
pIC50 ([7]; MIA PaCa-2, Table 16): < 5.00
pIC50 ([4]; HCT-116, Table 16, second HCT-116 column): < 5.00
pIC50 ([8]; Table 16, read-out: IC50 PC3): 5.55
Structure (SMILES): CNC(=O)c1cccc(Nc2nc3cc(-c4nnn[nH]4)ccc3c3sccc23)c1
pIC50 ([6]; Table 16): 5.52

pIC50 [1]: 5.67
pIC50 [2]: 5.46
Structure (SMILES): COC(=O)c1ccc2c(c1)nc(NC1CC1)c1nc(SCc3ccccc3Cl)ncc12 [drawing 1262]

pIC50 [1]: 4.89
pIC50 [2]: < 4.30
Structure (SMILES): CN(C)CCNc1nc2cc(C(=O)O)ccc2c2cnc(NC3CC3)nc12 [drawing 1293]

pIC50 [1]: 6.09
pIC50 [2]: 5.89
Structure (SMILES): C#Cc1cccc(Nc2nc3cc(C(=O)O)ccc3c3cnc(NCC4CC4)nc23)c1 [drawing 1257]
